Measured values taken from patent US9777003B2, “Tricyclic heterocycles as bet protein inhibitors” (Incyte Corporation, priority 2013, dated 2017).
Where a name gives a salt, the structure may show the parent alone. Read-outs that look alike come from different tables or passages of the source.

Key:
KMS.12.BM cells = experiment: KMS.12.BM cell viability assay (Cell Titer-GLO, ATP quantitation); type: cell-based; settings: KMS.12.BM human myeloma cells, 3 days, concentration required for 50% cell death, read-out: KMS cellular IC50
Protocol: KMS.12.BM cell line (human myeloma) was purchased from JCRB (Osaka, Japan) and maintained in RPMI with 10% FBS culture medium. To measure the cytotoxic activity of the compounds through ATP quantitation, the KMS.12.BM cells are plated in the RPMI culture medium at 5000 cells/well/per 100 μL into a 96-well polystyrene clear black tissue culture plate (Greiner-bio-one through VWR, NJ), in the presence or absence of a concentration range of test compounds. After 3 days, […] Cell Titer-GLO Luminescent (Promega, Madison, Wis.) cell culture agent is added to each well for 10 minutes at room temperature to stabilize the luminescent signal. This determines the number of viable cells in culture based on quantitation of the ATP present, which signals the presence of metabolically active cells. Luminescence is measured with the Top Count 384 (Packard Bioscience through Perkin Elmer, Boston, Mass.). […] IC50 data for the Examples is presented in Table 4 as determined by Assay B1.

BRD4-BD1 = BRD4-BD1 (Homo sapiens (Human), UniProt O60885); experiment: BRD4 AlphaScreen assay, BRD4-BD1; type: binding; settings: biotin-labeled tetra-acetylated histone H4 peptide, 75 min, room temperature, read-out: BRD4 BD-1 enzyme IC50
In short: (§1)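 IC50 values from percent-control versus log inhibitor fits after bead-based proximity readout (streptavidin donor, GSH acceptor, 75 min dark). Reactions: 75 min RT, pH 7.4 HEPES, biotin-H4Ac4 peptide 50 nM, with BD1 at 3.8 nM (DMSO 1.25%) and BD2 at 20 nM (DMSO 0.83%).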

BRD4-BD2 = BRD4-BD2 (Homo sapiens (Human), UniProt O60885); experiment: BRD4 AlphaScreen assay, BRD4-BD2; type: binding; settings: biotin-labeled tetra-acetylated histone H4 peptide, 75 min, room temperature, read-out: BRD4 BD-2 enzyme IC50
In short: as §1

| IC50 (BRD4-BD1) [µM] | IC50 (BRD4-BD2) [µM] | SMILES | IC50 (KMS.12.BM cells) [µM] | IC50 (KMS.12.BM cells; 72 h) [µM] |
| --- | --- | --- | --- | --- |
| – | – | Cc1cc2c(cc(N[C@@H]3CCN(C)[C@H](C)C3)c3nnc(C)n32)n1Cc1ccccc1 (mixture of isomers) [Example 224, 6-Benzyl-N-[(2S,4S)-1,2-dimethylpiperidin-4-yl]-1,7-dimethyl-6H-pyrrolo[2,3-e][1,2,4]triazolo[4,3-a]pyridin-4-amine and 6-Benzyl-N-[(2R,4R)-1,2-dimethylpiperidin-4-yl]-1,7-dimethyl-6H-pyrrolo[2,3-e][1,2,4]triazolo[4,3-a]pyridin-4-amine] | ≤ 1 | – |
| ≤ 0.1 | ≤ 0.1 | Cc1cc2c(cc(NCCCN(C)C)c3nnc(C)n32)n1Cc1ccccc1 [Example 245, N1-(6-Benzyl-1,7-dimethyl-6H-pyrrolo[2,3-e][1,2,4]triazolo[4,3-a]pyridin-4-yl)-N3,N3-dimethylpropane-1,3-diamine] | – | – |
| ≤ 0.1 | ≤ 0.1 | Cc1cc2c(cc(NCCN(C)C)c3nnc(C)n32)n1Cc1ccccc1 [Example 246, N1-(6-Benzyl-1,7-dimethyl-6H-pyrrolo[2,3-e][1,2,4]triazolo[4,3-a]pyridin-4-yl)-N2,N2-dimethylethane-1,2-diamine] | – | – |
| ≤ 0.1 | ≤ 0.1 | Cc1cc2c(cc(N[C@H]3C[C@H](O)C3)c3nnc(C)n32)n1Cc1ccccc1 [Example 247, trans-3-(6-Benzyl-1,7-dimethyl-6H-pyrrolo[2,3-e][1,2,4]triazolo[4,3-a]pyridin-4-ylamino)cyclobutanol] | – | – |
| 0.1 to 1 | ≤ 0.1 | Cc1cc2c(cc(NC(=O)OC(C)(C)C)c3nnc(C)n32)n1Cc1ccccc1 [Example 248, tert-Butyl 6-benzy1-1,7-dimethyl-6H-pyrrolo[2,3-e][1,2,4]triazolo[4,3-a]pyridin-4-ylcarbamate] | – | – |
| ≤ 0.1 | ≤ 0.1 | CCNC(=O)Nc1cc2c(cc(C)n2Cc2ccccc2)n2c(C)nnc12 [Example 249, 1-(6-Benzyl-1,7-dimethyl-6H-pyrrolo[2,3-e][1,2,4]triazolo[4,3-a]pyridin-4-yl)-3-ethylurea] | – | – |
| ≤ 0.1 | ≤ 0.1 | Cc1cc2c(cc(NC(=O)NC(C)C)c3nnc(C)n32)n1Cc1ccccc1 [Example 250, 1-(6-Benzyl-1,7-dimethyl-6H-pyrrolo[2,3-e][1,2,4]triazolo[4,3-a]pyridin-4-yl)-3-isopropylurea] | – | – |
| 0.1 to 1 | ≤ 0.1 | Cc1cc2c(cc(NC(=O)N(C)C)c3nnc(C)n32)n1Cc1ccccc1 [Example 251, 3-(6-Benzyl-1,7-dimethyl-6H-pyrrolo[2,3-e][1,2,4]triazolo[4,3-a]pyridin-4-yl)-1,1-dimethylurea] | – | – |
| ≤ 0.1 | ≤ 0.1 | Cc1cc2c(cc(NC(N)=O)c3nnc(C)n32)n1Cc1ccccc1 [Example 252, 1-(6-Benzyl-1,7-dimethyl-6H-pyrrolo[2,3-e][1,24]triazolo[4,3-a]pyridin-4-yl)urea] | – | – |
| ≤ 0.1 | ≤ 0.1 | Cc1cc2c(cc(Nc3ncc[nH]3)c3nnc(C)n32)n1Cc1ccccc1 [Example 253, 6-Benzyl-N-(1H-imidazol-2-yl)-1,7-dimethyl-6H-pyrrolo[2,3-e][1,2,4]triazolo[4,3-a]pyridin-4-amine] | – | – |
| ≤ 0.1 | ≤ 0.1 | Cc1cc2c(cc(NC(N)=O)c3nnc(C)n32)n1Cc1c(F)cccc1F [Example 254, 1-(6-(2,6-Difluorobenzyl)-1,7-dimethyl-6H-pyrrolo[2,3-e][1,2,4]triazolo[4,3-a]pyridin-4-yl)urea] | – | – |
| 0.1 to 1 | ≤ 0.1 | Cc1cc2c(cc(Nc3ccncc3)c3nnc(C)n32)n1Cc1ccccc1 [Example 255, 6-Benzyl-1,7-dimethyl-N-(pyridin-4-yl)-6H-pyrrolo[2,3-e][1,2,4]triazolo[4,3-a]pyridin-4-amine] | – | – |
| ≤ 0.1 | ≤ 0.1 | Cc1cc2c(cc(Nc3cccnc3)c3nnc(C)n32)n1Cc1ccccc1 [Example 256, 6-Benzyl-1,7-dimethyl-N-(pyridin-3-yl)-6H-pyrrolo[2,3-e][1,2,4]triazolo[4,3-a]pyridin-4-amine] | – | – |
| ≤ 0.1 | ≤ 0.1 | Cc1cc2c(cc(NCCCN)c3nnc(C)n32)n1Cc1ccccc1 [Example 257, N1-(6-Benzyl-1,7-dimethyl-6H-pyrrolo[2,3-e][1,2,4]triazolo[4,3-a]pyridin-4-yl)propane-1,3-diamine] | – | – |
| ≤ 0.1 | ≤ 0.1 | Cc1cc2c(cc(NCCN)c3nnc(C)n32)n1Cc1ccccc1 [Example 258, N1-(6-benzyl-1,7-dimethyl-6H-pyrrolo[2,3-e][1,2,4]triazolo[4,3-a]pyridin-4-yl)ethane-1,2-diamine] | – | – |
| ≤ 0.1 | ≤ 0.1 | CCNc1cc2c(cc(C)n2Cc2ccccc2)n2c(C)nnc12 [Example 259, 6-Benzyl-N-ethyl-1,7-dimethyl-6H-pyrrolo[2,3-e][1,2,4]triazolo[4,3-a]pyridin-4-amine] | – | – |
| ≤ 0.1 | ≤ 0.1 | Cc1cc2c(cc(Nc3ccccc3)c3nnc(C)n32)n1Cc1ccccc1 [Example 260, 6-Benzyl-1,7-dimethyl-N-phenyl-6H-pyrrolo[2,3-e][1,2,4]triazolo[4,3-a]pyridin-4-amine] | – | – |
| ≤ 0.1 | ≤ 0.1 | CNc1cc2c(cc(C)n2Cc2ccccc2)n2c(C)nnc12 [Example 261, 6-Benzyl-N,1,7-trimethyl-6H-pyrrolo[2,3-e][1,2,4]triazolo[4,3-a]pyridin-4-amine] | – | – |
| ≤ 0.1 | ≤ 0.1 | CCCNc1cc2c(cc(C)n2Cc2ccccc2)n2c(C)nnc12 [Example 262, 6-Benzyl-N-propyl-1,7-dimethyl-6H-pyrrolo[2,3-e][1,2,4]triazolo[4,3-a]pyridin-4-amine] | – | – |
| ≤ 0.1 | ≤ 0.1 | Cc1cc2c(cc(NC(C)C)c3nnc(C)n32)n1Cc1ccccc1 [Example 263, 6-Benzyl-N-isopropyl-1,7-dimethyl-6H-pyrrolo[2,3-e][1,2,4]triazolo[4,3-a]pyridin-4-amine] | – | – |
| 0.1 to 1 | 0.1 to 1 | COc1cc2c(cc(C)n2Cc2ccccc2)n2c(C)nnc12 [Example 264, 6-Benzyl-4-methoxy-1,7-dimethyl-6H-pyrrolo[2,3-e][1,2,4]triazolo[4,3-a]pyridine] | – | – |
| ≤ 0.1 | ≤ 0.1 | CC(=O)Nc1cc2c(cc(C)n2Cc2ccccc2)n2c(C)nnc12 [Example 266, N-(6-Benzyl-1,7-dimethyl-6H-pyrrolo[2,3-e][1,2,4]triazolo[4,3-a]pyridin-4-yl)acetamide] | – | – |
| 0.1 to 1 | ≤ 0.1 | CCCC(=O)Nc1cc2c(cc(C)n2Cc2ccccc2)n2c(C)nnc12 [Example 267, N-(6-Benzyl-1,7-dimethyl-6H-pyrrolo[2,3-e][1,2,4]triazolo[4,3-a]pyridin-4-yl)butyramide] | – | – |
| ≤ 0.1 | ≤ 0.1 | CCC(=O)Nc1cc2c(cc(C)n2Cc2ccccc2)n2c(C)nnc12 [Example 268, N-(6-Benzyl-1,7-dimethyl-6H-pyrrolo[2,3-e][1,2,4]triazolo[4,3-a]pyridin-4-yl)propionamide] | – | – |
| ≤ 0.1 | ≤ 0.1 | Cc1cc2c(cc(NC(=O)C3CC3)c3nnc(C)n32)n1Cc1ccccc1 [Example 269, N-(6-Benzyl-1,7-dimethyl-6H-pyrrolo[2,3-e][1,2,4]triazolo[4,3-a]pyridin-4-yl)cyclopropanecarboxamide] | – | – |
| ≤ 0.1 | ≤ 0.1 | Cc1cc2c(cc(NC(=O)C(C)C)c3nnc(C)n32)n1Cc1ccccc1 [Example 270, N-(6-Benzyl-1,7-dimethyl-6H-pyrrolo[2,3-e][1,2,4]triazolo[4,3-a]pyridin-4-yl)isobutyramide] | – | – |
| 0.1 to 1 | ≤ 0.1 | Cc1cc2c(cc(NS(C)(=O)=O)c3nnc(C)n32)n1Cc1ccccc1 [Example 271, N-(6-Benzyl-1,7-dimethyl-6H-pyrrolo[2,3-e][1,2,4]triazolo[4,3-a]pyridin-4-yl)methanesulfonamide] | – | – |
| ≤ 0.1 | ≤ 0.1 | COC(=O)Nc1cc2c(cc(C)n2Cc2ccccc2)n2c(C)nnc12 [Example 272, Methyl 6-benzyl-1,7-dimethyl-6H-pyrrolo[2,3-e][1,2,4]triazolo[4,3-a]pyridin-4-ylcarbamate] | – | – |

| SMILES | IC50 (BRD4-BD1) [µM] | IC50 (BRD4-BD2) [µM] | IC50 (KMS.12.BM cells) [µM] | IC50 (KMS.12.BM cells; 72 h) [µM] |
| --- | --- | --- | --- | --- |
| Cc1nnc2ccc3c(cc(-c4cc[nH]n4)n3Cc3cccc(CN4CCC4)c3)n12 [Example 182, 6-[3-(Azetidin-1-ylmethyl)benzyl]-1-methyl-7-(1H-pyrazol-3-yl)-6H-pyrrolo[2,3-e][1,2,4]triazolo[4,3-a]pyridine tris(trifluoroacetate) Salt] | ≤ 0.1 | ≤ 0.1 | – | ≤ 1 |
